Experimental findings from patent publication US11986471B2, “Compounds and methods of use” (Tango Therapeutics, Inc., priority 2018, dated 2024) are described below.

Test [1] deals with T1, PRMT5 (Homo sapiens, UniProt O14744).
T1 construct: purchased Viva (custom protein)
Put plainly: PRMT5 IC50 assay in the presence of SAM as cofactor. The class given is biochemical. The method in brief: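 Values reflect IC50 (μM) on human PRMT5 under three cofactor states. Selectivity is derived as the quotient of SAM-state Ki over MTA-state Ki, with each Ki obtained from its IC50.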

Test [2] concerns the target T1, PRMT5. Put plainly: PRMT5 IC50 assay with no cofactor. The test is classed as biochemical. The method in brief:
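Three cofactor conditions are run: SAM-bound, MTA-bound and cofactor-free enzyme. IC50 is read from each; for the SAM and MTA arms it is divided by 1.5 and 13.5 respectively to give Ki.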

The target of test [3] is T1, PRMT5. Put plainly: PRMT5 IC50 assay in the presence of MTA as cofactor. The class given is biochemical. As to conditions: for IC50: PRMT5, MTA as cofactor; for SAM/MTA Ratio: ratio between the Ki in the presence of SAM and the Ki in the presence of MTA. The method in brief:
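Each compound is tested on PRMT5 in the presence of SAM, of MTA, and without any cofactor. Ki values are then back-calculated using fixed factors of 1.5 (SAM) and 13.5 (MTA), and the two Ki values are compared as a ratio.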

Test [4] concerns HAP1 MTAP-intact. The test can be described thus: SDMA in-cell western assay, HAP1 MTAP-intact cell line. As to conditions: Homo sapiens. The test is classed as cell-based. The method in brief:
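Cells from two matched HAP1 lines, MTAP-null and MTAP-expressing at endogenous levels, are treated with compound. SDMA is then quantified by in-cell western and an IC50 is calculated for each line.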

Test [5] has as its system HAP1 MTAP-deleted. Put plainly: SDMA in-cell western assay, HAP1 MTAP-deleted cell line. The class given is cell-based. As to conditions: for IC50: Homo sapiens, HAP1 MTAP-deleted cell line; for MTAP Intact/Deleted Ratio: IC50 ratio HAP1 MTAP-intact / HAP1 MTAP-deleted. The method in brief:
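MTAP-null HAP1 cells, the deleted member of an isogenic pair with endogenously MTAP-expressing HAP1, are treated with compound. SDMA is then quantified by in-cell western and an IC50 is calculated.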

Each structure is given as a SMILES string.

T1 sequence (O14744 whole entry): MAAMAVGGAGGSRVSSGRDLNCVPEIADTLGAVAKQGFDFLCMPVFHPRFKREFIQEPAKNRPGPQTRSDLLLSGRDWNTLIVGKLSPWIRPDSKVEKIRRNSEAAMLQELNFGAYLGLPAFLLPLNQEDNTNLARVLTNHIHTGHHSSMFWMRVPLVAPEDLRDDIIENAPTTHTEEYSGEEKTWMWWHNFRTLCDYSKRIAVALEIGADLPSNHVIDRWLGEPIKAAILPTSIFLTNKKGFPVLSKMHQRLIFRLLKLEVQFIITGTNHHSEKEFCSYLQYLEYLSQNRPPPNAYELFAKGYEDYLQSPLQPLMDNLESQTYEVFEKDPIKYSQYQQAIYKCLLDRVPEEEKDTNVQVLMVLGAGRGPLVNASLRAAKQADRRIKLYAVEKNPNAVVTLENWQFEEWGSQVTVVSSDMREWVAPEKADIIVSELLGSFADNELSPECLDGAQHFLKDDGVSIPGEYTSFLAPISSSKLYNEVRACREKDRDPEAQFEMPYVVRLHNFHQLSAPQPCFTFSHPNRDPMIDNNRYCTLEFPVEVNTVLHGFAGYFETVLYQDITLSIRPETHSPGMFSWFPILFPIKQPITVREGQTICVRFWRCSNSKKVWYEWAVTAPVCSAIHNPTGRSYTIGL
T1 sequence (Q9BQA1 whole entry partner): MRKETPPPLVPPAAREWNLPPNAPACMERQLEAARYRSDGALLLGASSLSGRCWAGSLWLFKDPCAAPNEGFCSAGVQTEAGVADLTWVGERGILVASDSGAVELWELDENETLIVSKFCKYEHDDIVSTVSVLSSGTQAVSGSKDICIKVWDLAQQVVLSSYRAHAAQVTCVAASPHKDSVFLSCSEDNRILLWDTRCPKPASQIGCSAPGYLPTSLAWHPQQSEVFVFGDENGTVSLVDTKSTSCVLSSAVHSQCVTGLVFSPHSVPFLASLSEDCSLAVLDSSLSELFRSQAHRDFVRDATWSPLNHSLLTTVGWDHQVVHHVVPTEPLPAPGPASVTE

On to `Cc1ncoc1COc1ccc2c(c1)CCN(C[C@@H](O)CNC(=O)c1cc(NC3CCC3)nc(N3C4CCC3COC4)c1)C2` [Compound 598], for which the IC50 was 50 to 500 nM in test [1]; 500 to 5000 nM in test [2]; 50 to 500 nM in test [3]; below 1000 nM in test [4]; below 1000 nM in test [5]. Also, the “SAM/MTA Ratio” value in test [3] was “A (a Ki ratio greater than or equal to 10 fold between the Ki in the presence of SAM and the Ki in the presence of MTA)”. In addition, the “MTAP Intact/Deleted Ratio” value in test [5] was “C* (an IC50 ratio of less than 3 fold between the IC50 in the HAP1 MTAP-intact cell line and the HAP1 MTAP-deleted cell line)”.

For `COc1cc(C(=O)NC[C@H](O)CN2CCc3cc(OCc4ocnc4C)ccc3C2)cc(NC2CCN(C(C)=O)CC2)n1` [Compound 599, (S)-2-((1-acetylpiperidin-4-yl)amino)-N-(2-hydroxy-3-(6-((4-methyloxazol-5-yl)methoxy)-3,4-dihydroisoquinolin-2(1H)-yl)propyl)-6-methoxyisonicotinamide], the IC50 in test [1] was 50 to 500 nM; in test [2], 500 to 5000 nM; in test [3], 50 to 500 nM; in test [4], 1000 to 10000 nM; in test [5], below 1000 nM. For the same compound, the “SAM/MTA Ratio” value in test [3] is “A (a Ki ratio greater than or equal to 10 fold between the Ki in the presence of SAM and the Ki in the presence of MTA)”. Moreover, in test [5], the “MTAP Intact/Deleted Ratio” value is “A* (an IC50 ratio greater than or equal to 10 fold between the IC50 in the HAP1 MTAP-intact cell line and the HAP1 MTAP-deleted cell line)”.

Consider `Cc1ncoc1COc1cc2c(cc1F)CN(C[C@@H](O)CNC(=O)c1ccnc(Nc3cccnc3)c1)CC2` [Compound 600, N-[(2S)-3-[7-fluoro-6-[(4-methyloxazol-5-yl)methoxy]-3,4-dihydro-1H-isoquinolin-2-yl]-2-hydroxy-propyl]-2-(3-pyridylamino)pyridine-4-carboxamide], for which the IC50 in test [1] is 50 to 500 nM; in test [2] it was at least 5000 nM; in test [3], 50 to 500 nM; in test [4] it was at least 10000 nM; in test [5], 1000 to 10000 nM. In addition, the “SAM/MTA Ratio” value in test [3] was “A (a Ki ratio greater than or equal to 10 fold between the Ki in the presence of SAM and the Ki in the presence of MTA)”. Also, the “MTAP Intact/Deleted Ratio” value in test [5] is “B* (an IC50 ratio greater than or equal to 3 fold but lower than 10 fold between the IC50 in the HAP1 MTAP-intact cell line and the HAP1 MTAP-deleted cell line)”.

Turning to `Cc1ncoc1COc1ccc2c(c1)CCN(C[C@@H](O)CNC(=O)c1cc(Nc3cccnc3)nc(N3CCCCC3)c1)C2` [Compound 601], the IC50 is 50 to 500 nM in test [1]; 500 to 5000 nM in test [2]; below 50 nM in test [3]; below 1000 nM in test [4]; below 1000 nM in test [5]. The “SAM/MTA Ratio” value in test [3] was “A (a Ki ratio greater than or equal to 10 fold between the Ki in the presence of SAM and the Ki in the presence of MTA)”. The “MTAP Intact/Deleted Ratio” value in test [5] is “B* (an IC50 ratio greater than or equal to 3 fold but lower than 10 fold between the IC50 in the HAP1 MTAP-intact cell line and the HAP1 MTAP-deleted cell line)”.

Turning to `COc1cnc(NC2CCC2)cc1C(=O)NC[C@H](O)CN1CCc2cc(OCc3ocnc3C)ccc2C1` [Compound 602], the half-inhibitory concentration (IC50) in test [1] fell in the range of 50 to 500 nM; in test [2], 500 to 5000 nM; in test [3] it was 50 to 500 nM; in test [4], 1000 to 10000 nM; in test [5], 1000 to 10000 nM. The “SAM/MTA Ratio” value in test [3] is “A (a Ki ratio greater than or equal to 10 fold between the Ki in the presence of SAM and the Ki in the presence of MTA)”. Moreover, in test [5], the “MTAP Intact/Deleted Ratio” value is “C* (an IC50 ratio of less than 3 fold between the IC50 in the HAP1 MTAP-intact cell line and the HAP1 MTAP-deleted cell line)”.

For the compound `Cc1ncoc1COc1ccc2c(c1)CCN(C[C@@H](O)CNC(=O)c1cc(Nc3cccnc3)nc(N3[C@@H]4CC[C@H]3COC4)c1)C2` [Compound 603, 2-((1R,5S)-3-oxa-8-azabicyclo[3.2.1]octan-8-yl)-N—((S)-2-hydroxy-3-(6-((4-methyloxazol-5-yl)methoxy)-3,4-dihydroisoquinolin-2(1H)-yl)propyl)-6-(pyridin-3-ylamino)isonicotinamide], the IC50 is 50 to 500 nM in test [1]; 500 to 5000 nM in test [2]; below 50 nM in test [3]; 1000 to 10000 nM in test [4]; below 1000 nM in test [5]. In addition, the “SAM/MTA Ratio” value in test [3] was “A (a Ki ratio greater than or equal to 10 fold between the Ki in the presence of SAM and the Ki in the presence of MTA)”. Besides, the “MTAP Intact/Deleted Ratio” value in test [5] is “B* (an IC50 ratio greater than or equal to 3 fold but lower than 10 fold between the IC50 in the HAP1 MTAP-intact cell line and the HAP1 MTAP-deleted cell line)”.

Regarding `COc1cc(C(=O)NC[C@H](O)CN2CCc3c(ccc(OCc4ocnc4C)c3C)C2)cc(NC2CCN(C(C)=O)CC2)n1` [Compound 604, (S)-2-((1-acetylpiperidin-4-yl)amino)-N-(2-hydroxy-3-[5-methyl-6-((4-methyloxazol-5-yl)methoxy)-3,4-dihydroisoquinolin-2(1H)-yl)propyl)-6-methoxyisonicotinamide], the 50% inhibitory concentration (IC50) in test [1] was 50 to 500 nM; in test [2] it was 500 to 5000 nM; in test [3] it was 50 to 500 nM; in test [4], 1000 to 10000 nM; in test [5], below 1000 nM. Also, the “SAM/MTA Ratio” value in test [3] is “A (a Ki ratio greater than or equal to 10 fold between the Ki in the presence of SAM and the Ki in the presence of MTA)”. Moreover, in test [5], the “MTAP Intact/Deleted Ratio” value is “A* (an IC50 ratio greater than or equal to 10 fold between the IC50 in the HAP1 MTAP-intact cell line and the HAP1 MTAP-deleted cell line)”.

For the compound `CC(=O)N(C)[C@H]1CC[C@H](Nc2cc(C(=O)NC[C@H](O)CN3CCc4c(ccc(OCc5cnco5)c4C)C3)ncn2)CC1` [Compound 605, N-[(2S)-2-hydroxy-3-{5-methyl-6-[(1,3-oxazol-5-yl)methoxy]-1,2,3,4-tetrahydroisoquinolin-2-yl}propyl]-6-{[(1r,4r)-4-(N-methylacetamido)cyclohexyl]amino}pyrimidine-4-carboxamide], the IC50 in test [1] was 50 to 500 nM; in test [2], at least 5000 nM; in test [3], 50 to 500 nM; in test [4] it was at least 10000 nM; in test [5] it was 1000 to 10000 nM. In test [3], the “SAM/MTA Ratio” value was “A (a Ki ratio greater than or equal to 10 fold between the Ki in the presence of SAM and the Ki in the presence of MTA)”. The “MTAP Intact/Deleted Ratio” value in test [5] was “B* (an IC50 ratio greater than or equal to 3 fold but lower than 10 fold between the IC50 in the HAP1 MTAP-intact cell line and the HAP1 MTAP-deleted cell line)”.

Consider `CC(=O)N1CCC(Nc2cncc(C(=O)NC[C@H](O)CN3CCc4c(ccc(OCc5cnco5)c4C)C3)c2)CC1` [Compound 606, 5-[(1-acetylpiperidin-4-yl)amino]-N-[(2S)-2-hydroxy-3-{5-methyl-6-[(1,3-oxazol-5-yl)methoxy]-1,2,3,4-tetrahydroisoquinolin-2-yl}propyl]pyridine-3-carboxamide], for which the IC50 in test [1] was 50 to 500 nM; in test [2], 500 to 5000 nM; in test [3], 50 to 500 nM; in test [4], at least 10000 nM; in test [5] it was 1000 to 10000 nM. Besides, the “SAM/MTA Ratio” value in test [3] was “A (a Ki ratio greater than or equal to 10 fold between the Ki in the presence of SAM and the Ki in the presence of MTA)”. In addition, the “MTAP Intact/Deleted Ratio” value in test [5] was “C* (an IC50 ratio of less than 3 fold between the IC50 in the HAP1 MTAP-intact cell line and the HAP1 MTAP-deleted cell line)”.
